# Experimental data reported in patent US8410053B2, “Methods for treating autoimmune disorders, and reagents related thereto” (Trustees of Tufts College, priority 2001, dated 2013).
# Assays:
# DPIV = target: T1, DPIV (Rattus norvegicus, UniProt P14740); test: DPIV assays on serum samples from rats; format: in vivo; conditions: rat serum 1 hour after treatment; Ala-Pro-paranitroanalide substrate, pH 8
# T1 construct: from tissue; host or cells: rat serum
# Method: Four rats were used in this experiment: two females (#3 and #9) and two males (#10 and #11). Blood and plasma samples were collected from rats 1 hour after being treated with Cyclohexylglycine-boroAla. The collected serum samples were evaluated for DPPIV activity of Cyclohexylglycine-boroAla as follows: • 1. 2 mg of Ala-Pro-paranitroanalide (substrate) was dissolved in 20 ml 0.1 M HEPES pH 8, 0.14 M NaCl (buffer). • 2. Serum samples were diluted into substrate solution in the wells of a microtiter plate. For each sample, 10 uL of serum was diluted into 150 μL of substrate. • 3. A reading of the A410 in each well was recorded immediately after the dilution of serum into substrate, and again after approximately 1 hour. The time of data acquisition for each reading is recorded in the data file by the microplate reader software.
# The rate of absorbance change was obtained by subtracting the first reading from the second and dividing by the reaction time to give DeltaA410/hr. The DPIV activity was plotted in units of DeltaA410 hr^−1μ^−1.
# [1] = In vivo regulation of glucose metabolism
# DP-IV = DP-IV (Homo sapiens, UniProt P27487); test: Inhibition / affinity for DP-IV; format: biochemical
# [2] = in vivo, cited from earlier work
# NOD mice = test: Incidence of diabetes in NOD mice upon treatment with DPIV inhibitors; format: in vivo
# Method: The experiment was started on 8-10 week old NOD mice. The mice were kept under VAF/SPF conditions and fed everyday with either Val-boro-Pro (0.034 mg/kg) or Cyclohexyl-boro-Ala (0.34 mg/kg) for 60 days and then observed for the development of spontaneous diabetes. The mice were tested for the excretion of sugar in urine and considered positive for diabetes when sugar was detected in the urine.
# [3] = chronic (>5 days) treatment, alone
# Sequence of DP-IV (P27487 whole entry): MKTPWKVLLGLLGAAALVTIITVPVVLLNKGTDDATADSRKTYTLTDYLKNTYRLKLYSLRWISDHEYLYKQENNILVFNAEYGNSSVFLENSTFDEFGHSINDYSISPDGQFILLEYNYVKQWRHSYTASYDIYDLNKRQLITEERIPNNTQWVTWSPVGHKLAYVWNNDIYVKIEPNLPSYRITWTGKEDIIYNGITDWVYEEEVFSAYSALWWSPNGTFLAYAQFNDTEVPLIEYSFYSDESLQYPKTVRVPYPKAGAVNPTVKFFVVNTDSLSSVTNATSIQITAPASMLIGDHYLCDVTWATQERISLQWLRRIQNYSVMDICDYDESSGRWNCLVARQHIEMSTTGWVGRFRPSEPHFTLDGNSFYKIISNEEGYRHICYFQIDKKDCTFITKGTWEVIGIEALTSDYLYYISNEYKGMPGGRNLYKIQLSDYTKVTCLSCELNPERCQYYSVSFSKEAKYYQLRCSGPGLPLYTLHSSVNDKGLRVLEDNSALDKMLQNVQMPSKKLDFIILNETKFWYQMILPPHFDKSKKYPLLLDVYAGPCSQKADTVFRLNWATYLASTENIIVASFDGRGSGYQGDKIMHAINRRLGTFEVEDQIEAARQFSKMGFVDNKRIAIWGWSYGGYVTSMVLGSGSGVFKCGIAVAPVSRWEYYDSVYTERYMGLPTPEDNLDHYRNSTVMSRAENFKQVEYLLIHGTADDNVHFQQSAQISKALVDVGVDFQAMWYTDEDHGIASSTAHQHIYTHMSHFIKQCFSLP
# T1 sequence (P14740 38-767 limits assumed): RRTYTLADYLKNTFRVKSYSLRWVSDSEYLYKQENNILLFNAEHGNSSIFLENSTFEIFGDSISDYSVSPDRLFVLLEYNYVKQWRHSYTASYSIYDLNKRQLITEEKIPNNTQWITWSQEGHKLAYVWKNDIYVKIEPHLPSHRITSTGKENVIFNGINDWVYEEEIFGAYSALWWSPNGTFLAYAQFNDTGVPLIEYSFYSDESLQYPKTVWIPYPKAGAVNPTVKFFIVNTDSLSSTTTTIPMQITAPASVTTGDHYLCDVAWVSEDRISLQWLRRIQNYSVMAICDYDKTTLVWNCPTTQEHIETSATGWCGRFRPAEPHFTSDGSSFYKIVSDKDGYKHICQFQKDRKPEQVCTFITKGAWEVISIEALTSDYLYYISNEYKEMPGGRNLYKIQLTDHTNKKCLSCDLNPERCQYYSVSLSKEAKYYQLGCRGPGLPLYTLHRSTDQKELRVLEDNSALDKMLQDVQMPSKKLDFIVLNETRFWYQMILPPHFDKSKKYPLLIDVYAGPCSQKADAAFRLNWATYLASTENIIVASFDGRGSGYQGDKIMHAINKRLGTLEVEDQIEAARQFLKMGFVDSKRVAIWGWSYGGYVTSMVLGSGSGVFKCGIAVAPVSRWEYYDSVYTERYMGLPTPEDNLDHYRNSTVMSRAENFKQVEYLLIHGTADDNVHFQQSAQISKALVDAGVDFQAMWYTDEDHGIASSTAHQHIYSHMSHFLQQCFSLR
molecule,measurement,setting,value
CC(NC(=O)C(N)C1CCCCC1)B(O)O (stereo not drawn) [Cyclohexylglycine-boroAla],DPIV enzyme activity in serum,DPIV,significantly decreased
O=C(C1CCCN1)N1CCCC1B(O)O (stereo not drawn) [Pro-boro-Pro],fasting blood sugars,[1]; [3],lowers
same,glycemic excursion to oral glucose challenge,[1]; [3],lowers
same,response to a subtherapeutic dose of GLP-1,[1]; single injection,potentiate the response
same,glucose control,"[1]; single injection, alone",alone sufficient to improve glucose control
L-Ala-L-boroPro-pinacol,"extent of DP-IV inhibition, silica gel fractions compared",DP-IV; early fraction vs later fractions at equal concentrations,inhibits DP-IV to a greater extent than later fractions
glucagon-like peptide-1 [GLP-1],degradation,[2]; iv,extensively degraded
same,degradation without inhibitor,[2]; sc,rapidly degraded in a time-dependent manner
CC(C)[C@H](N)C(=O)N1CCC[C@H]1B(O)O [Val-boro-Pro],recovery of mice that showed signs of diabetes,NOD mice; 0.034 mg/kg fed every day for 60 days,some of the mice that showed signs of diabetes got better and recovered
same,incidence of Diabetes,"NOD mice; 0.034 mg/kg fed every day for 60 days, end of the experiment",low incidence of Diabetes
same,general health compared to the other groups,NOD mice; end of the experiment,generally good health
"CC(NC(=O)OC(C)(C)C)C(=O)N1CCCC1B(O)O (stereo not drawn) [Boc-blocked Ala-boroPro, Boc-Ala-boroPro]",affinity for DP-IV,DP-IV,no affinity
